Results on 7 compounds are retold here after patent US20230159489A1, “PHD INHIBITOR COMPOUNDS, COMPOSITIONS, AND USE” (Akebia Therapeutics, Inc., priority 2020, published 2023).

As usually defined, the IC50 is the concentration that inhibits the measured activity by half.

For experiment [1], the target named is full-length human PHD2 (Homo sapiens, UniProt Q9GZT9). As to the kind of experiment: TR-FRET assay, enzymatic IC50 against PHD2.
Source text: Time-resolved fluorescence resonance energy transfer (TR-FRET) assay was utilized to determine the enzymatic half maximal inhibitory concentration (IC50) value of PHD inhibitors against the full-length human prolyl-4-hydroxylase domain (PHD) enzymes, PHD1, PHD2, and PHD3. The TR-FRET assay was developed based on the specific binding of hydroxylated HIF-1α peptide with the complex formed by VHL, EloB and EloC (VBC), to generate a fluorescent signal. Terbium (Tb)-Donor (monoclonal antibody anti-6His-Tb-cryptate Gold) and D2-acceptor (streptavidin [SA]-D2) of TR-FRET are linked to the VBC complex and to HIF-1α peptide, respectively. The VBC complex binds specifically to the HIF-1α peptide when it is hydroxylated, allowing energy transfer from TR-FRET donor to acceptor (FIG. 1). […] The plates were incubated for 30 minutes at room temperature without rotation. […] TR-FRET assays were performed in triplicate at each concentration of compound and the assays were repeated independently three times.
The target of experiment [2] is T1, full-length human PHD3 (Homo sapiens, UniProt Q9H6Z9).
T1 construct: 6-His (N); purchased Active Motif 81033; host or cells: E. coli
T1 sequence (Q9H6Z9 whole entry): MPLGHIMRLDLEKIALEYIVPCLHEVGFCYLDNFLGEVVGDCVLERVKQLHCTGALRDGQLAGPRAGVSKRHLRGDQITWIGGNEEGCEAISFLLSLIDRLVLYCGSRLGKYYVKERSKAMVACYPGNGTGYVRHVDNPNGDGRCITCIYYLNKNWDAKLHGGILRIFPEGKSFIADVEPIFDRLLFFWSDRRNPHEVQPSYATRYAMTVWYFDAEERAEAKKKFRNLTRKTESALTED
As to the kind of experiment: TR-FRET assay, enzymatic IC50 against PHD3. Further: 35 nM PHD3. Type of experiment: biochemical. The text has this: Recombinant human PHD3 protein (molecular weight 31.1 kDa) was purchased from Active Motif (Carlsbad, Calif., USA). It was expressed in E. coli as the full-length protein (NCBI accession number NP_071356.1) with an N-terminal 6-His tag (catalog #81033, Lot #24417001).
A general note: Time-resolved FRET reads energy transfer from a long-lived donor to a nearby acceptor.

Experiment [3] deals with T2, full-length human PHD1 (Homo sapiens, UniProt Q96KS0).
T2 construct: FLAG (N); purchased Active Motif 81064; host or cells: baculovirus expression system
T2 sequence (Q96KS0 whole entry): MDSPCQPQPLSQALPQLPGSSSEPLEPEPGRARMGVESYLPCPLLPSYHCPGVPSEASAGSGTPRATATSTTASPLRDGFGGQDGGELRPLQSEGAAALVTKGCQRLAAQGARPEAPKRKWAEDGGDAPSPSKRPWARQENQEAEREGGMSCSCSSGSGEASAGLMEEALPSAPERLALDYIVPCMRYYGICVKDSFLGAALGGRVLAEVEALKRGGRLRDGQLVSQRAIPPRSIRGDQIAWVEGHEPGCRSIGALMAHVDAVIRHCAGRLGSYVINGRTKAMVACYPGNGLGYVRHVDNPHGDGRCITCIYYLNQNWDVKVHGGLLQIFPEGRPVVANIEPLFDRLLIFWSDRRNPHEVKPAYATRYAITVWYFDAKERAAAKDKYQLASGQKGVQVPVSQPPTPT
As to the kind of experiment: TR-FRET assay, enzymatic IC50 against PHD1. Further: 15 nM PHD1. Type of experiment: biochemical. From the text:
PHD1 was expressed in a baculovirus expression system as the full-length protein (NCBI accession number NP_542770.2) with an N-terminal FLAG tag (molecular weight 44.9 kDa).

Sequence of full-length human PHD2 (Q9GZT9 whole entry): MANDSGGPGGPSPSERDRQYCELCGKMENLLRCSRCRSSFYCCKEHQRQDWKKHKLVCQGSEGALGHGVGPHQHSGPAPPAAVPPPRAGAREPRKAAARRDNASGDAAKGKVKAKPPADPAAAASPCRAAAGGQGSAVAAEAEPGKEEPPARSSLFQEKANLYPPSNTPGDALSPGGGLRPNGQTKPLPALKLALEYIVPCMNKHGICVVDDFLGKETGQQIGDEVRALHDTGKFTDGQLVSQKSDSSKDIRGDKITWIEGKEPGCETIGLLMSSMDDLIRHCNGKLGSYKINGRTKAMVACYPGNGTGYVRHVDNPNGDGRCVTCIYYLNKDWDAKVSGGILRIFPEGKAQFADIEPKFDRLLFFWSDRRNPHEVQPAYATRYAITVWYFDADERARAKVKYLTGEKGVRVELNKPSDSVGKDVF

For the compound `Cc1nn(-c2ccc(S(=N)(=O)C3CCC3)cn2)c(O)c1-c1ccc(C#N)cc1` (stereo not drawn) [Compound 34, 4-(1-(5-(cyclobutanesulfonimidoyl)pyridin-2-yl)-5-hydroxy-3-methyl-1H-pyrazol-4-yl)benzonitrile], the IC50 in experiment [1], in experiment [2] and in experiment [3] was under 0.1 µM in each case.

In the case of `Cc1nn(-c2ccc(S(=N)(=O)C3CCCC3)cn2)c(O)c1-c1ccc(C#N)cc1` (stereo not drawn) [Compound 35, 4-(1-(5-(cyclopentanesulfonimidoyl)pyridin-2-yl)-5-hydroxy-3-methyl-1H-pyrazol-4-yl)benzonitrile], the IC50 in experiment [1], in experiment [2] and in experiment [3] was under 0.1 µM in each case.

Turning to `Cc1cc(-n2nc(C)c(-c3ccc(C#N)cc3)c2O)ncc1P(C)(C)=O` [Compound 36, 4-(1-(5-(dimethylphosphoryl)-4-methylpyridin-2-yl)-5-hydroxy-3-methyl-1H-pyrazol-4-yl)benzonitrile], the IC50 in experiment [1] was under 0.1 µM; in experiment [2], 0.1 to 1 µM; in experiment [3], under 0.1 µM.

In the case of `Cc1nn(-c2ccc(S(C)(=O)=O)cn2)c(O)c1-c1ccc(C#N)cn1` [Compound 44, 6-(5-hydroxy-3-methyl-1-(5-(methylsulfonyl)pyridin-2-yl)-1H-pyrazol-4-yl)nicotinonitrile], the values for the IC50 in experiment [1], in experiment [2] and in experiment [3] were 0.1 to 1 µM, 1 to 10 µM and 0.1 to 1 µM, respectively.

For the compound `Cc1nn(-c2ccc(NS(=O)(=O)CC(=O)O)cn2)c(O)c1-c1ccc(C#N)cc1` [Compound 55, 2-(N-(6-(4-(4-cyanophenyl)-5-hydroxy-3-methyl-1H-pyrazol-1-yl)pyridin-3-yl)sulfamoyl)acetic acid], the IC50 in experiment [1], in experiment [2] and in experiment [3] was under 0.1 µM each time.

For the compound `Cc1nn(-c2ccc([S@@](=N)(=O)C3CC3)cn2)c(O)c1-c1ccc(C#N)cc1` [Compound 56, (S)-4-(1-(5-(cyclopropanesulfonimidoyl)pyridin-2-yl)-5-hydroxy-3-methyl-1H-pyrazol-4-yl)benzonitrile], the IC50 in experiment [1], in experiment [2] and in experiment [3] was under 0.1 µM in each case.

In the case of `Cc1nn(-c2ccc(S(C)(=O)=NC#N)cn2)c(O)c1-c1ccc(C#N)cc1` (stereo not drawn) [Compound 58, N-((6-(4-(4-cyanophenyl)-5-hydroxy-3-methyl-1H-pyrazol-1-yl)pyridin-3-yl)(methyl)(oxo)-λ^6-sulfaneylidene)cyanamide], the results for the IC50 in experiment [1], in experiment [2] and in experiment [3] were under 0.1 µM, 0.1 to 1 µM and under 0.1 µM, respectively.
